Data on 28 compounds can be found in patent US10953012B2, “Heterocyclic compounds for the inhibition of pask” (BioEnergenix LLC, priority 2011, dated 2021).

In general, IC50 refers to the midpoint of a concentration-inhibition curve.

For this assay, the target named is PASK (Homo sapiens (Human), UniProt Q96RG2). The assay is described as follows: PAS Kinase FRET Assay. Type of assay: biochemical. The following applies: TR-FRET assay; read-out: IC50 Kinase Domain. From the text: The aim of the FRET assay is to determine the inhibition potential of test compounds on targeted kinase. This assay platform provides a homogenous screening method for measuring kinase activity by quantitating the amount of phospho-substrate in solution following a kinase reaction.
PASK, sequence (Q96RG2 999-1251): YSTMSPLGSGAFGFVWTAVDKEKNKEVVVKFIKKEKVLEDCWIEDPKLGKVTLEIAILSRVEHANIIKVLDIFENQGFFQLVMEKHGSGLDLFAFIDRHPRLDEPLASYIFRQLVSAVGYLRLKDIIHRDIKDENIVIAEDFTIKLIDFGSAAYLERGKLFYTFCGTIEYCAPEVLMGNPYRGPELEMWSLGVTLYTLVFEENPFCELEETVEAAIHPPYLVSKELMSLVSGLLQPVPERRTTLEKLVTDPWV
In the presence of kinase and ATP, the Ulight-peptide is phosphorylated and captured by an anti-phospho-substrate antibody, which brings the Eu chelate donor and Ulight acceptor dyes into close proximity. Upon excitation at 340 nm, the Eu chelate transfers its energy to the Ulight dye, resulting in a fluorescent light emission at 665 nm
Titration of kinase at 1 mM ATP was achieved via the following protocol. After making serial three-fold dilutions of PASK (Invitrogen) in reaction buffer across the plate; 5 μl of kinase dilution and 5 μl substrate/ATP mix were added to the wells of the white Optiplate-384 (PerkinElmer). The contents of the plate were and incubated at RT for 1 h. The reaction was stopped by adding 5 μl of stop solution to each test well followed by mixing and incubation at RT for 10 minutes. 5 μl of detection mix (detection antibody diluted in detection buffer) was added; the contents of the plate were mixed and then incubated in the dark for 1 hour at RT. The signal was recorded at TR-FRET mode (665 nm/615 nm). The results were graphed to calculate the EC50.
Titration of ATP at the EC50 concentration of kinase to determine ATP Km, app. was performed using the following method. After making serial dilutions of ATP (Invitrogen), 5 μl of ATP dilution and 5 μl substrate/kinase mix were added to the wells of the white Optiplate-384 (PerkinElmer). The contents of the plate were and incubated at RT for 1 h. The reaction was stopped by adding 5 μl of stop solution to each test well followed by mixing and incubation at RT for 10 minutes. 5 μl of detection mix (detection antibody diluted in detection buffer) was added; the contents of the plate were mixed and then incubated in the dark for 1 hour at RT. The signal was recorded at TR-FRET mode (665 nm/615 nm). The results were graphed to calculate the EC50 as the ATP Km, app.
Compound screening was done via the following method. 10 mM stock solution of test compound in DMSO was prepared by dissolving test compound in DMSO at RT for 1 hour, and then sonicating at 100% output for 8 minutes. If compound is not soluble under this condition, it was diluted to 3 mM. Kinase reaction buffer was prepared containing 10 mM MgCl2, 50 mM HEPES, 1 mM EGTA, 0.01% TWEEN-20, 2 mM DTT. Serial dilutions of the test compounds were prepared at 4×final assay concentrations using Freedom EVO200® dispensing system as follows: 12×10^−5 M, 4×10^−5 M, 1.33×10^−5 M, 4.44×10^−6 M, 1.48×10^−6 M, 4.92×10^−7 M, 1.65×10^−7 M, […], 1.82×10^−8M, 6.09×10^−9, 2.03×10^−9 M. Test compounds (2.5 μl at 4× the final assay concentration) was added to wells using Freedom EVO200® dispensing system. As a positive control, 2.5 μl of positive compound was added to assay wells, and 2.5 μl of DMSO to assay wells as vehicle control. Kinase solution was prepared in reaction buffer at 2×final assay concentration. Kinase solution (5 μl) was added to each well of the assay plate. The substrate and ATP solution was prepared in kinase reaction buffer at 4×final assay concentration. The kinase reaction was started by adding 2.5 μl of substrate+ATP mix solution to each well of the assay plate. The plate is mixed on a plate shaker; then covered and allowed to react for 2 hours in the dark at 25° C. without shaking. The reaction was stopped by adding 5 μl of stop solution to each test well followed by mixing and incubation at RT for 10 minutes in the dark. 5 μl of detection mix (detection antibody diluted in detection buffer) was added; the contents of the plate were mixed and then incubated in the dark for 1 hour at RT. The signal was recorded at TR-FRET mode (665 nm/615 nm).
(TR-FRET usually uses a lanthanide donor and a delayed reading to cut background.)

As to `Cc1nn2c(=O)cc(-c3ccc(O)cc3)[nH]c2c1-c1ccccc1` [Example 80, 5-(4-Hydroxyphenyl)-2-methyl-3-phenylpyrazolo[1,5-a]pyrimidin-7(4H)-one], the IC50 is at most 10 µM.

`COc1ccc(-c2cnn3c(=O)cc(-c4ccc5c(c4)OCCO5)[nH]c23)cc1` [Example 82, 5-(2,3-Dihydrobenzo[b][1,4]dioxin-6-yl)-3-(4-methoxyphenyl)pyrazolo[1,5-a]pyrimidin-7(4H)-one]: the IC50 was at most 10 µM.

`Cc1nn2c(=O)cc(-c3ccc4ncccc4c3)[nH]c2c1-c1ccc(F)cc1` [Example 83, 3-(4-Fluorophenyl)-2-methyl-5-(quinolin-6-yl)pyrazolo[1,5-a]pyrimidin-7(4H)-one]: the IC50 is at most 10 µM.

For `COc1ccc(-c2c(C)nn3c(=O)cc(-c4ccc5ncccc5c4)[nH]c23)cc1` [Example 84, 3-(4-Methoxyphenyl)-2-methyl-5-(quinolin-6-yl)pyrazolo[1,5-a]pyrimidin-7(4H)-one], the IC50 is at most 10 µM.

As to `COc1ccc(-c2c(C)nn3c(=O)cc(-c4ccc5c(c4)OCCO5)[nH]c23)cc1` [Example 85, 5-(2,3-Dihydrobenzo[b][1,4]dioxin-6-yl)-3-(4-methoxyphenyl)-2-methylpyrazolo[1,5-a]pyrimidin-7(4H)-one], the IC50 was at most 10 µM.

`O=c1cc(-c2ccc3c(c2)OCCO3)[nH]c2c(-c3ccc(F)cc3)cnn12` [Example 86, 5-(2,3-Dihydrobenzo[b][1,4]dioxin-6-yl)-3-(4-fluorophenyl)pyrazolo[1,5-a]pyrimidin-7(4H)-one]: the IC50 is at most 10 µM.

For `Cc1nn2c(=O)cc(-c3ccc4[nH]ccc4c3)[nH]c2c1-c1ccccc1` [Example 87, 5-(1H-Indol-5-yl)-2-methyl-3-phenylpyrazolo[1,5-a]pyrimidin-7(4H)-one], the IC50 was at most 10 µM.

Consider `O=c1cc(-c2ccccc2)[nH]c2c(-c3ccc(N4CCCCC4)nc3)cnn12` [Example 88, 5-Phenyl-3-(6-(piperidin-1-yl)pyridin-3-yl)pyrazolo[1,5-a]pyrimidin-7(4H)-one], for which the IC50 was at least 10 µM.

Take `O=c1cc(-c2ccc3c(c2)OCCO3)[nH]c2c(-c3cccc(Cl)c3)cnn12` [Example 90, 3-(3-Chlorophenyl)-5-(2,3-dihydrobenzo[b][1,4]dioxin-6-yl)pyrazolo[1,5-a]pyrimidin-7(4H)-one]: the half-inhibitory concentration (IC50) is at most 10 µM.

Consider `O=c1cc(-c2ccc3c(c2)OCCO3)[nH]c2c(-c3ccc(Br)cc3)cnn12` [Example 104, 3-(4-Bromophenyl)-5-(2,3-dihydrobenzo[b][1,4]dioxin-6-yl)pyrazolo[1,5-a]pyrimidin-7(4H)-one], for which the IC50 was at most 10 µM.

As to `O=c1cc(-c2ccccc2)[nH]c2c(-c3ccc(O)nc3)cnn12` [Example 105, 3-(6-Hydroxypyridin-3-yl)-5-phenylpyrazolo[1,5-a]pyrimidin-7(4H)-one], the IC50 was at most 10 µM.

For `COc1ccc(-c2cnn3c(=O)cc(-c4ccccc4)[nH]c23)cn1` [Example 112, 3-(6-Methoxypyridin-3-yl)-5-phenylpyrazolo[1,5-a]pyrimidin-7(4H)-one], the IC50 is at most 10 µM.

`O=C(O)c1cnn2c(=O)cc(-c3ccc4c(c3)OCCO4)[nH]c12` [Example 115, 5-(2,3-Dihydrobenzo[b][1,4]dioxin-6-yl)-7-oxo-4,7-dihydropyrazolo[1,5-a]pyrimidine-3-carboxylic acid]: the IC50 was at most 10 µM.

As for `O=c1cc(-c2ccc3c(c2)OCCO3)[nH]c2c(-c3ccc(N4CCOCC4)nc3)cnn12` [Example 118, 5-(2,3-Dihydrobenzo[b][1,4]dioxin-6-yl)-3-(6-morpholinopyridin-3-yl)pyrazolo[1,5-a]pyrimidin-7(4H)-one], the half-inhibitory concentration (IC50) was at most 10 µM.

Consider `O=c1cc(-c2ccc(Cl)cc2Cl)[nH]c2c(-c3ccccn3)cnn12` [Example 124, 5-(2,4-Dichlorophenyl)-3-(pyridin-2-yl)pyrazolo[1,5-a]pyrimidin-7(4H)-one], for which the 50% inhibitory concentration (IC50) is at most 10 µM.

In the case of `O=c1cc(-c2ccc(Cl)cc2)[nH]c2c(Cc3ccccc3)cnn12` [Example 132, 3-benzyl-5-(4-chlorophenyl)pyrazolo[1,5-a]pyrimidin-7(411)-one], the concentration for half-maximal inhibition (IC50) was at most 10 µM.

For the compound `CCCc1cnn2c(=O)cc(-c3ccc4c(c3)OCO4)[nH]c12` [Example 134, 5-(Benzo[d][1,3]dioxol-5-yl)-3-propylpyrazolo[1,5-a]pyrimidin-7(4H)-one], the IC50 was at most 10 µM.

Regarding `COc1cc(Cl)ccc1-c1cc(=O)n2ncc(-c3ccccn3)c2[nH]1` [Example 136, 5-(4-Chloro-2-methoxyphenyl)-3-(pyridin-2-yl)pyrazolo[1,5-a]pyrimidin-7(4H)-one], the IC50 is at most 10 µM.

For the compound `COc1nn2c(=O)cc(-c3ccc(Cl)cc3)[nH]c2c1C#N` [Example 138, 5-(4-Chlorophenyl)-2-methoxy-7-oxo-4,7-dihydropyrazolo[1,5-a]pyrimidine-3-carbonitrile], the concentration for half-maximal inhibition (IC50) was at most 10 µM.

As for `N#Cc1c(O)nn2c(=O)cc(-c3ccc(Cl)cc3)[nH]c12` [Example 139, 5-(4-Chlorophenyl)-2-hydroxy-7-oxo-4,7-dihydropyrazolo[1,5-a]pyrimidine-3-carbonitrile], the IC50 was at most 10 µM.

`CS(=O)(=O)c1ccc(-c2cc(=O)n3ncc(-c4ccccn4)c3[nH]2)cc1` [Example 140, 5-(4-(Methylsulfonyl)phenyl)-3-(pyridin-2-yl)pyrazolo[1,5-a]pyrimidin-7(4H)-one]: the IC50 is at most 10 µM.

In the case of `O=C(c1cnn2c(=O)cc(-c3ccc4c(c3)OCCO4)[nH]c12)N1CCCC1` [Example 146, 5-(2,3-Dihydrobenzo[b][1,4]dioxin-6-yl)-3-(pyrrolidine-1-carbonyl)pyrazolo[1,5-a]pyrimidin-7(4H)-one], the IC50 was at most 10 µM.

Turning to `Nc1nn2c(=O)cc(-c3cc4ccccc4o3)[nH]c2c1-c1ccccn1` [Example 151, 2-Amino-5-(benzofuran-2-yl)-3-(pyridin-2-yl)pyrazolo[1,5-a]pyrimidin-7(4H)-one], the IC50 is at most 10 µM.

For the compound `Nc1nn2c(=O)cc(-c3ccc(Cl)c(Cl)c3)[nH]c2c1-c1ccccn1` [Example 153, 2-Amino-5-(3,4-dichlorophenyl)-3-(pyridin-2-yl)pyrazolo[1,5-a]pyrimidin-7(4H)-one], the IC50 was at most 10 µM.

For the compound `O=c1cc(-c2ccccc2)[nH]c2c(-c3cccnc3)c(O)nn12` [Example 154, 2-Hydroxy-5-phenyl-3-(pyridin-3-yl)pyrazolo[1,5-a]pyrimidin-7(4H)-one], the IC50 is at most 10 µM.

Take `COc1nn2c(=O)cc(-c3ccc4c(c3)OCO4)[nH]c2c1-c1ccccn1` [Example 157, 5-(Benzo[d][1,3]dioxol-5-yl)-2-methoxy-3-(pyridin-2-yl)pyrazolo[1,5-a]pyrimidin-7(4H)-one]: the IC50 was at most 10 µM.

For the compound `O=c1cc(-c2ccc(Cl)cc2F)[nH]c2c(-c3ccccn3)cnn12` [Example 162, 5-(4-Chloro-2-fluorophenyl)-3-(pyridin-2-yl)pyrazolo[1,5-a]pyrimidin-7(4H)-one], the IC50 is at most 10 µM.

With `Nc1nn2c(=O)cc(-c3ccc4occc4c3)[nH]c2c1-c1ccccn1` [Example 165, 2-Amino-5-(benzofuran-5-yl)-3-(pyridin-2-yl)pyrazolo[1,5-a]pyrimidin-7(4H)-one], the IC50 was at most 10 µM.
